Reference: patent US20220257541A1, “Lacosamide for the Treatment of ADD/ADHD” (priority 2019, published 2022)

Experiments:
[1] = test system: potassium or calcium currents; settings: cited from earlier work
[2] = test system: children and adolescents with ADHD syndrome; assay: Case Study 3: IQ test prior to and after treatment; format: in vivo, human; settings: for IQ: Post-treatment, patient
Protocol: IQ was tested prior to and after treatment.

[3] = test system: children and adolescents with ADHD syndrome; assay: Case Study 3: 'PASA' clinical questionnaire (Thinking, Mood, Sleep, Alterity); format: in vivo, human
Protocol: This study describes a series of cases of 12 children and adolescents (aged between 7 and 17 year old) treated with lacosamide. The patients were from 3 different orphanages and under the general supervision of a tutor.
We administrated doses adjusted to age and weight of each patient, in line with the therapeutic doses described herein. Specifically, lacosamide was administered to the patients following the approved treatment regimen for lacosamide (Vimpat®) in epileptic children from 4 years of age as per Table 1 above. The patients were at constant supervision of the tutor and other personnel of the orphanages.
After being selected by the tutors, children were evaluated during a clinical consultation carried out in their own institution. Through this consultation, we verified the clinical condition of each child or adolescent, their records and anamnesis, if any. We also filled out the Clinical story forms. At the same time, we performed the first ‘PASA’ Evaluation. The ‘PASA’ Test is a clinical questionnaire that was developed by the inventor of the present application (see FIG. 1 for questionnaire questions). It includes examination of Thinking (“P” for “Pensamiento”), Mood (“A” for “Animo”), Sleep (“S” for “Sueno”) and Alterity (“A” for “Alteridad”).
‘PASA’ Evaluation was repeated every 60 days after initiating the medication. The four editions of this questionnaire were compared and analysed, drawing a close-up portrait of the clinical evolution of these cases.
The overall trend is very favourable in all cases. Patients' symptoms improved in all categories. In this study, the patients were evaluated before treatment with lacosamide (evaluation 1) and every 2 months in the course of the treatment.

[4] = test system: patient suffering from ADHD; assay: Case Study 2: lacosamide mono-therapy in a person with ADHD; format: in vivo, human; settings: mono-therapy for several weeks
Protocol: We conducted a second case study to validate earlier results of Case Study 1. The patient was a person suffering from ADHD (with no comorbidity such as epilepsy or bipolar disorder). The patient was treated with a lacosamide mono-therapy for several weeks based on the conventional treatment regime for lacosamide (for the treatment of epilepsy and/or bipolar disorder) for subjects weighting 50 kg or more.

[5] = test system: voltage-gated calcium channels (L-, N-, P/Q, T-type channels); settings: cited from earlier work
[6] = test system: children and adolescents with ADHD syndrome; assay: Case Study 3: pedagogical evaluation (literary and mathematical skills); format: in vivo, human
Protocol: In order to evaluate the academic level of the patients and later evolution while being treated, we established indicators of literary and mathematical skills of the patients in line with the official assessment of the Ministry of Education of the Dominican Republic.
Academic evolution was assessed 90 days after initiating the treatment and at the end of the 6th month.
In order to measure academic evolution we used different parameters, which are: Spanish language, Reading, Writing, Comprehension of their own reading, Mathematics, Reasoning, argumentation capacities and Problem solving.
Independently, we established at each evaluation the attained level of alphabetisation and the acquisition of literary skills every patient had, as shown in Table 3.
We categorised the sample following the protocol of the local Ministry of Education's Evaluation tool, which will qualify students following the consideration of “Non Acquired”, “Towards Acquisition” or “Acquired” levels.

[7] = test system: reuptake of norepinephrine, dopamine, and serotonin; settings: cited from earlier work
GABA transaminase = GABA transaminase (Homo sapiens, UniProt P80404); settings: cited from earlier work
Chain of GABA transaminase (P80404 29-500, species assumed): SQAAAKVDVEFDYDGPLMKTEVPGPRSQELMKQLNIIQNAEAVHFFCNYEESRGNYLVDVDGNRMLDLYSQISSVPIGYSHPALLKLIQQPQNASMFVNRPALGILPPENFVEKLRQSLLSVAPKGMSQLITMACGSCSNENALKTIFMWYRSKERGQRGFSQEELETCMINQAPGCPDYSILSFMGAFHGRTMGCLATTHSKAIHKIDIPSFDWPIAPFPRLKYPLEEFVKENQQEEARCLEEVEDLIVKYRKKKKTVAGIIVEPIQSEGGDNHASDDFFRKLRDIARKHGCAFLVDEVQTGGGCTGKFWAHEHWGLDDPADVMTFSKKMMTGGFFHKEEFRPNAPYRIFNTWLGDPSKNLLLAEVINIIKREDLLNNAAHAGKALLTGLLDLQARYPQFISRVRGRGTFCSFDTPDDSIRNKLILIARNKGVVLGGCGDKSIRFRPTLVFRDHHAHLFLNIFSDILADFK

[8] = test system: children and adolescents with ADHD syndrome; assay: Case Study 3: adverse reactions or side effects; format: in vivo, human; settings: all 12 patients, 6 months
Description: To formalise the control of the treatment, a tool was designed, allowing to record all administrated doses to participants on a daily basis, including any occurrence or increase of adverse reactions or side effects.

[9] = after treatment, ~75% at the beginning
[10] = end of the study, 17% prior to treatment

SMILES: COC[C@@H](NC(C)=O)C(=O)NCc1ccccc1 [lacosamide, (2R)-2-(acetylamino)-N-benzyl-3-methoxypropanamide]
- block of potassium or calcium currents [1]: does not block
- patients who maintained previous IQ levels ([2]; 12 patients tested): 23%
- patients who raised their IQ values ([2]; 12 patients tested): 77%
- patients with a lowering of the IQ value ([2]; 12 patients tested): In none of the patients
- IQ ([2]; 2nd High School, Pre-treatment CI-80): CI-90
- IQ ([2]; 2nd High School, Pre-treatment CI-99): CI-112
- IQ ([2]; 2nd Primary, Pre-treatment CI-94): CI-106
- IQ ([2]; 3rd Primary, Pre-treatment CI-82): CI-82
- IQ ([2]; 3rd Primary, Pre-treatment CI-117): CI-117
- IQ ([2]; 5th Primary, Pre-treatment CI-81): CI-91
- IQ ([2]; 5th Primary, Pre-treatment CI-91): CI-95
- IQ ([2]; 5th Primary, Pre-treatment CI-95): CI-104
- IQ ([2]; 5th Primary, Pre-treatment CI-111): CI-111
- IQ ([2]; 6th Primary, Pre-treatment CI-93): CI-95
- IQ ([2]; 7th Primary, Pre-treatment CI-87): CI-91
- IQ ([2]; Bachelor, Pre-treatment CI-108): CI-114
- IQ progression on average ([2]; subgroup of 33% of the patients): four
- IQ progression average ([2]; subgroup of 40% of the patients): around 11±2 points
- patients in the subgroup with the smaller IQ progression ([2]; subgroup that progressed on average by four points): 33%
- patients in the subgroup with the larger IQ progression ([2]; subgroup with progression average of around 11±2 points): 40%
- global IQ increase ([2]; sum for 12 patients tested): 60 points
- Mood and Sleep symptoms in most patients ([3]; 12 patients, 6 months): complete or nearly complete alleviation of the symptoms
- all tested 'PASA' categories (Sleep Activity, Thoughts, Mood) ([3]; 12 patients, 6 months): positive impact
- patients with depressive unjustified feelings ([3]; after six months of treatment, from 25%): 0%
- patients with irritability ([3]; after treatment, from 33.3%): 16.7%
- patients with cenesthesia [3, 9]: 8.3%
- patients with hyper emotion [3, 9]: 25%
- patients with hypomania [3, 9]: 16.7%
- patients with lethargy [3, 9]: 8.3%
- patients with mood change [3, 9]: 0%
- patients with tiredness [3, 9]: 8.3%
- Trend of Thought: Disordered ([3]; end of study (6 months), 67% of 12 patients before treatment): completely disappeared
- Trend of Thought: Overabundant ([3]; end of study (6 months), 83% of 12 patients before treatment): completely disappeared
- distressing thoughts ([3]; end of study, 17% of patients at the beginning): completely eliminated
- patients with difficulties with falling asleep ([3]; end of study, from 75%): 0%
- patients with sleep interruption ([3]; end of study, from 83%): 8.3%
- patients with sudden off-sense disconnections (spacing out) ([3]; end of study, initially 50%): 33%
- patients with dysphasia (inability of sustaining attention or understanding a long phrase) ([3]; end of study, initially 83%): 42%
- patients with second thoughts disturbing concentration ([3]; end of study, initially 83%): 42%
- patients with cenesthesic presences (sleep) ([3]; end of the trial period, from 75%): 8.3%
- general state after waking up, sleeping without interruptions and ease of sleep ([3]; four evaluations over 6 months): improvement
- realistic dreams ([3]; four evaluations over 6 months): not significantly affected
- patients with blocking thoughts ([3]; in the course of treatment, 50% at the beginning): 25%
- Hypercritical thinking ([3]; over the course of the study): small improvement
- Tachypsychia ([3]; over the course of the study): small improvement
- ADHD symptomatology [4]: slowly regressed
- cognitive functionality [4]: significant improvement
- inhibition of voltage-gated calcium channels (L-, N-, P/Q, T-type) [5]: not to inhibit
- pedagogic evaluation, all tested competencies ([6]; 6-month treatment, tests pre-treatment, after 3 and 6 months): gradual progression
- patients who completely acquired Reasoning and Solving Problems (Mathematics) ([6]; after 3 months of treatment, initial 25%): 50%
- subjects at the intermediate level, Towards Acquisition ([6]; end of the study): 25%
- change in patients who acquired the reading and writing skills ([6]; end of the study versus first evaluation): +60%
- patients able to understand what they were reading (Comprehensive Reading) [6, 10]: 83%
- patients who completely acquired the reading and writing skills [6, 10]: 75%
- subjects at the non-acquired level (Read, Write, Comprehensive Reading) ([6]; end of the study, 83% prior to treatment): 0%
- proportion of the sample Alphabetised (alphabetical level) ([6]; maintained until the end of the study, 25% at the beginning): 75%
- modulation of reuptake of norepinephrine, dopamine, and serotonin [7]: does not modulate
- inhibition of GABA transaminase (GABA transaminase): does not inhibit
- side effects [8]: without substantial side effects
